From patent publication US8088808B2, “Substituted N-phenyl-bipyrrolidine carboxamides and therapeutic use thereof” (Sanofi, priority 2007, dated 2012)
Structures can show the parent of a compound that is named as a salt.

How the values were obtained:
[1] = molecular target: rhesus (Macaca Mulatta) H3 receptor (Macaca mulatta, UniProt Q865E1); assay: Rhesus H3 radioligand binding assay ([3H]-Methylhistamine displacement, WGA SPA beads); set-up: species or system rhesus monkey (Macaca Mulatta)
Procedure: (§1) (Genbank #AY231164). Stably transfected cultures were amplified in tissue culture flasks by standard tissue culture methods and induced to express rhesus H3 by exposure to 500 ng/ml tetracycline (Cellgro) for 24 hours. After induction, cells were dissociated from flasks utilizing Cell Stripper (Cellgro). Cells were centrifuged (1K×g, 5 min) and pellet frozen in an ethanol-dry ice bath to disrupt cell membranes. Frozen cell pellet was re-suspended in 5 mM HEPES (pH 7.4, Invitrogen) at 10 ml/1000 cm2 of harvested cells. The cell suspension was drawn through an 18 gauge needle (2-3×) followed by a 23 gauge needle (2-3×) to further disrupt cell membranes. The cell suspension was centrifuged (40K×g, 30 min). Cell membrane pellet was re-suspended in 5 mM HEPES (pH 7.4, Invitrogen) at a final protein concentration of 10 mg/ml. Rhesus H3 membranes were stored under liquid nitrogen prior to use in [3H]-Methylhistamine and GTPγS radioligand binding assays.
Rhesus H3 radioligand binding assay was performed using rhesus H3 receptor membranes (prepared as described above), [3H]-Methylhistamine (Perkin Elmer) and WGA SPA beads (wheat germ agglutinin scintillation proximity assay) beads (Amersham). The assay was performed in 96-well Opti-Plates (Packard). Each reaction contained 50 μl rhesus H3 membranes (20-30 μg total protein), 50 μl WGA SPA beads (0.1 μg) and 50 μl of 83 Ci/mmol [^3H]-Methylhistamine (final concentration 2 nM) and 50 μl of tested compound. The compounds of this invention and/or vehicle were diluted with binding buffer from 10 mM DMSO stocks. Assay plates were sealed with TopSeal (Perkin Elmer) and mixed on shaker (25° C., 1 hour). Assay plates were read on TopCount scintillation counter (Packard). Results were analyzed by Hill transformation and Ki values were determined by Cheng-Prusoff equation.

[2] = test system: rhesus H3; assay: GTPγS radioligand binding assay (inhibition of rhesus H3 constitutive functional activity in cell membranes); type: biochemical, rhesus monkey (Macaca Mulatta); conditions: Table 1; relative to basal level
Procedure: as §1, with “Rhesus H3 membranes were prepared from the Flp-In T-REx 293 Cell Line (Invitrogen) stably transfected with pcDNA5/FRT/TO (Invitrogen) containing the rhesus monkey (Macaca Mulatta) 445 amino acid H3 receptor. (Genbank” for “(Genbank”

[3] = molecular target: MCH receptor (Homo sapiens, UniProt Q99705); assay: MCH receptor [125J]-ligand binding filtration assay; conditions: 10 μM test compound; percent inhibition of ligand binding
Procedure: The activity of the compounds of this invention at the MCH receptor site, if any was measured by the procedures as set forth below. • Test Compounds The compounds of this invention were stored in a 96-well microtiter plates (1 μL, 10 mM, 100% DMSO). Each of the test sample was diluted with 249 μL of 100% DMSO (dilution 1:250). […] Blank: Assay buffer containing 0.4% DMSO were transferred to the dilution microtiter plates for blanks • Assay Procedure: The filter plates with […] of 0.5% PEI-solution/well were incubated for 2 hours at room temperature. PEI was removed by vacuum filtration just before pipetting (Univac Polyfiltronic/Whatman). The solution of the compound as prepared above (50 μL), or MCH ([…]) or Puffer/DMSO (positive control) were added to 96-well round bottom microtiter plate. Then 50 μl of [^125J]-ligand solution was added followed by 100 μl of membrane suspension. The plates were closed with the lids, and incubated for 60 min. at 25° C. The samples were transferred to GF/B filter plate. The reaction mixture was removed by vacuum filtration, washed 4× with 300 μL ice-cold washing buffer and the washing solution was removed by vacuum filtration. The rubber layer at the bottom of the plate was then removed and the filters were dried over night at room temperature. 25 μL of scintillation cocktail was added and the plates were sealed and, plate frames were added and incubated for 1 hour at room temperature. The radioactivity was then measured, settings ^125J standard, 30 sec./well.

[4] = Table 1, [3H]-Methylhistamine 2 nM, Cheng-Prusoff
[5] = Table 2, procedure of Example 42

rhesus (Macaca Mulatta) H3 receptor, sequence (Q865E1 1-445): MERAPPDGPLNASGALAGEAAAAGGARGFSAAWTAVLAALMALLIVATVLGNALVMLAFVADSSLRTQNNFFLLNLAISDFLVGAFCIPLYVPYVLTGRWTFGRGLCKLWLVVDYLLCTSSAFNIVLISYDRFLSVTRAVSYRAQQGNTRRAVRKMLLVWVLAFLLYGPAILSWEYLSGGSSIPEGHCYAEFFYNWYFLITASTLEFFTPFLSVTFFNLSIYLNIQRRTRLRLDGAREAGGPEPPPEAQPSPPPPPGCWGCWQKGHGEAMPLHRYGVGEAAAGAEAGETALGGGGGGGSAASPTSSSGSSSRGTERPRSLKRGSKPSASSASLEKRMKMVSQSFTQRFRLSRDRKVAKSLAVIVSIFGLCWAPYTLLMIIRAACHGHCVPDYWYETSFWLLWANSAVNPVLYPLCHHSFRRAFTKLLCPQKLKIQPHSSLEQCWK
MCH receptor, sequence (Q99705 whole entry): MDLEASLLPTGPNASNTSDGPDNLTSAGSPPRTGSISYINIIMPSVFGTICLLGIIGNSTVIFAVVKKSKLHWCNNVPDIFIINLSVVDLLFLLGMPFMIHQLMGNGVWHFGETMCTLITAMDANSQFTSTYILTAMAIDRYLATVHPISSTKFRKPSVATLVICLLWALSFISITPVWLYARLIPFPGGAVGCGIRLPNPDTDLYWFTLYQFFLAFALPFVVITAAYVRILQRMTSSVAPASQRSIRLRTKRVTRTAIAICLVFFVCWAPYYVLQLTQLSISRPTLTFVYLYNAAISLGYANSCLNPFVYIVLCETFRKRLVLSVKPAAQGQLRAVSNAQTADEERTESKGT

| SMILES | Ki [1, 4] | Ki [1, 5] | Inverse Agonism: % inhibition of Basal GTPγS binding in Rhesus H3 [2] | inhibition at 10 µM [3] |
| --- | --- | --- | --- | --- |
| Cc1cc(N2CC[C@H](N3CCC[C@@H]3C)C2)ccc1NC(=O)c1ccoc1 [Example 6, Furan-3-carboxylic acid [2-methyl-4-(2S-methyl-[1,3′S]bipyrrolidinyl-1′-yl)-phenyl]-amide trifluoro-acetate] | 1.8 nM | 1.8 nM | −17% | -6.9% |
| Cc1noc(C)c1C(=O)Nc1ccc(N2CCC(N3CCCC3C)C2)cc1 (centres unmarked) [Example 26, 3,5-Dimethyl-isoxazole-4-carboxylic acid [4-(2-methyl-[1,3′]bipyrrolidinyl-1′-yl)-phenyl]-amide trifluoroacetate] |  | 2.1 nM |  | 9.4% |
| Cc1cc(NC(=O)C2C(C)(C)C2(C)C)ccc1N1CCC(N2CCCC2C)C1 (centres unmarked) [Example 27, 2,2,3,3-Tetramethyl-cyclopropanecarboxylic acid [3-methyl-4-(2-methyl-[1,3′]bipyrrolidinyl-1′-yl)-phenyl]-amide trifluoroacetate] |  | 65.5 nM |  | 36% |
| Cc1nc(C(=O)Nc2ccc(N3CC[C@H](N4CCC[C@@H]4C)C3)cc2C)co1 [Example 28, 2-Methyl-oxazole-4-carboxylic acid [2-methyl-4-(2(S)-methyl-[1,3′(S)]bipyrrolidinyl-1′-yl)-phenyl]-amide trifluoroacetate] |  | 4.6 nM |  | 7% |
| CC1CCCN1C1CCN(c2ccc(NC(=O)C3C[C@@H]4CC[C@H]3C4)cc2)C1 (stereo partly drawn) [Example 29, (1S,4R)-Bicyclo[2.2.1]heptane-2-carboxylic acid [4-(2-methyl-[1,3′]bipyrrolidinyl-1′-yl)-phenyl]-amide trifluoroacetate] |  | 15.7 nM |  | 11.4% |
| CC1CCCN1C1CCN(c2ccc(NC(=O)C3CC3)c(C(F)(F)F)c2)C1 (centres unmarked) [Example 30, Cyclopropanecarboxylic acid [4-(2-methyl-[1,3′]bipyrrolidinyl-1′-yl)-2-trifluoromethyl-phenyl]-amide trifluoroacetate] |  | 14.7 nM |  | 1.2% |
| Cc1cc(C(=O)Nc2ccc(N3CCC(N4CCCC4C)C3)cc2)n[nH]1 (centres unmarked) [Example 31, 5-Methyl-1H-pyrazole-3-carboxylic acid [4-(2-methyl-[1,3′]bipyrrolidinyl-1′-yl)-phenyl]-amide trifluoroacetate] |  | 44.5 nM |  | 30.5% |
| Cc1cc(N2CCC(N3CCCC3C)C2)ccc1NC(=O)c1ccc(-n2ccccc2=O)o1 (centres unmarked) [Example 32, 5-(2-Oxo-2H-pyridin-1-yl)-furan-2-carboxylic acid [2-methyl-4-(2-methyl-[1,3]bipyrrolidinyl-1′-yl)-phenyl]-amide] |  | 33.3 nM |  | 10.9% |
| Cc1cc(N2CCC(N3CCCC3C)C2)ccc1NC(=O)c1cn[nH]c1 (centres unmarked) [Example 33, 1H-Pyrazole-4-carboxylic acid [2-methyl-4-(2-methyl-[1,3′]bipyrrolidinyl-1′-yl)-phenyl]-amide trifluoroacetate] |  | 24.7 nM |  | 9.7% |
| Cc1cc(NC(=O)c2cn[nH]c2)ccc1N1CCC(N2CCCC2C)C1 (centres unmarked) [Example 34, 1H-Pyrazole-4-carboxylic acid [3-methyl-4-(2-methyl-[1,3′]bipyrrolidinyl-1′-yl)-phenyl]-amide trifluoroacetate] |  | 126 nM |  | 16.8% |
| Cc1cc(C(=O)Nc2ccc(N3CCC(N4CCCC4C)C3)cc2C(F)(F)F)n[nH]1 (centres unmarked) [Example 35, 5-Methyl-1H-pyrazole-3-carboxylic acid [4-(2-methyl-[1,3′]bipyrrolidinyl-1′-yl)-2-trifluoromethyl-phenyl]-amide trifluoroacetate] |  | 307 nM |  | 23.5% |
| CC1CCCN1C1CCN(c2ccc(NC(=O)CC3CCCC3)cc2)C1 (centres unmarked) [Example 36, 2-Cyclopentyl-N-[4-(2-methyl-[1,3′]bipyrrolidinyl-1′-yl)-phenyl]-acetamide trifluoroacetate] | 3.14 nM | 3.1 nM | −33% | 0.7% |
| Cc1cc(N2CCC(N3CCCC3C)C2)ccc1NC(=O)c1cc(-c2ccncc2)n[nH]1 (centres unmarked) [Example 37, 5-Pyridin-4-yl-2H-pyrazole-3-carboxylic acid [2-methyl-4-(2-methyl-[1,3′]bipyrrolidinyl-1′-yl)-phenyl]-amide trifluoroacetate] |  | 14.2 nM |  | 34.4% |
| Cc1cc(NC(=O)CC2CCCC2)ccc1N1CCC(N2CCCC2C)C1 (centres unmarked) [Example 38, 2-Cyclopentyl-N-[3-methyl-4-(2-methyl-[1,3′]bipyrrolidinyl-1′-yl)-phenyl]-acetamide trifluoroacetate] |  | 10.7 nM |  | 3.7% |
| Cc1cc(N2CC[C@H](N3CCC[C@@H]3C)C2)ccc1NC(=O)C1CCCC1 [Example 39, Cyclopentane carboxylic acid [2-methyl-4-(2(S)-methyl-[1,3′ (S)]bipyrrolidinyl-1′-yl)-phenyl]-amide trifluoroacetate] |  | 0.5 nM |  | -7.2% |
| CC1CCCN1C1CCN(c2ccc(NC(=O)C3CC3)cc2)C1 (centres unmarked) [Example 40, Cyclopropanecarboxylic acid [4-(2-methyl-[1,3′]bipyrrolidinyl-1′-yl)-phenyl]-amide trifluoroacetate] |  | 9.7 nM |  | -3.4% |
| Cc1cc(NC(=O)C2CC2)ccc1N1CCC(N2CCCC2C)C1 (centres unmarked) [Example 41, Cyclopropanecarboxylic acid [3-methyl-4-(2-methyl[1,3′]bipyrrolidinyl-1′-yl)-phenyl]-amide trifluoroacetate] |  | 17.7 nM |  | -1.3% |
